Reference: US20240293443A1, “HEPARAN SULFATE MIMETICS TO IMPROVE GLUCOSE CLEARANCE” (The Regents of the University of California, priority 2021, published 2024)
Entries after “also recorded” stand apart in the source; their conditions may differ.

Experiments:
[1] = system: WT adipocytes; assay: 3[H]-2-deoxy-glucose uptake in WT MEF-derived adipocytes; format: cell-based, mouse; conditions: for glucose clearance in differentiated adipocytes: WT, Wnt inhibitor treatment during the first 3 days of adipogenesis
Method: Cells were seeded on a 24-well plate at a density of 30,000 cells/cm^2. Cells were allowed to grow to confluence for 48 hours. At this point (Day 0), the media were removed, cells were washed with PBS, and differentiation media with or without heparin (100 μg/ml) were added. […] On Day 3 of differentiation, cells were washed with PBS and treated with insulin media, which consisted of 2 μM insulin, and 1 μM rosiglitazone in DMEM with 10% FBS. The cellular cholesterol and triglyceride content was determined after lysing cells in 0.1M NaOH. Total plasma cholesterol and plasma triglyceride levels (Sekisui Diagnostics) and protein levels (BCA protein assay) were determined using commercially available kits.
Cells are washed twice with PBS and placed into DMEM with 2 mg/mL BSA for two hours. […] The insulin solution is then removed and the cells are washed twice with transport solution before radioactive transport solution is added, which consists of 0.25 μCi/well of 3[H]-2-deoxy-glucose and 0.025 mM 2-deoxy-glucose. After a 10-minute incubation in the radioactive transport solution, it is removed and the, the glucose uptake is halted by addition of ice cold PBS. The cold PBS is removed and each well is washed twice with PBS. Then, lysis buffer consisting of 0.1 M NaOH and 0.1% w/v sodium dodecyl sulfate, is added to each well. The radioactive lysate was transferred to a scintillation vial containing 5 mL of Ultima Gold liquid scintillation fluid and analyzed using a liquid Scintillation counter.
Cells were differentiated for 6 days using the standard adipogenic differentiation protocol described above. Each day on Days 0-3, the cells were washed with PBS and incubated with 200 μL solution of DMEM containing GPs at the indicated concentrations added for 1 hour at 37° C. After this time, the media were removed, the cells were washed with PBS, and fresh differentiation media were added. On Day 6, the adipocytes were subjected to the ^3[H]-2-deoxy-glucose uptake assay and the spent media were analyzed for glucose and lactate content as described above.

[2] = system: Ndst1−/− adipocytes; assay: 3[H]-2-deoxy-glucose uptake in Ndst1−/− MEF-derived adipocytes; format: cell-based, mouse; conditions: for glucose clearance in differentiated adipocytes: Ndst1−/−, Wnt inhibitor treatment during the first 3 days of adipogenesis
Method: Cells were seeded on a 24-well plate at a density of 30,000 cells/cm^2. Cells were allowed to grow to confluence for 48 hours. At this point (Day 0), the media were removed, cells were washed with PBS, and differentiation media with or without heparin (100 μg/ml) were added. […] On Day 3 of differentiation, cells were washed with PBS and treated with insulin media, which consisted of 2 μM insulin, and 1 μM rosiglitazone in DMEM with 10% FBS. The cellular cholesterol and triglyceride content was determined after lysing cells in 0.1M NaOH. Total plasma cholesterol and plasma triglyceride levels (Sekisui Diagnostics) and protein levels (BCA protein assay) were determined using commercially available kits. Cells are washed twice with PBS and placed into DMEM with 2 mg/mL BSA for two hours. […] The insulin solution is then removed and the cells are washed twice with transport solution before radioactive transport solution is added, which consists of 0.25 μCi/well of 3[H]-2-deoxy-glucose and 0.025 mM 2-deoxy-glucose. After a 10-minute incubation in the radioactive transport solution, it is removed and the, the glucose uptake is halted by addition of ice cold PBS. The cold PBS is removed and each well is washed twice with PBS. Then, lysis buffer consisting of 0.1 M NaOH and 0.1% w/v sodium dodecyl sulfate, is added to each well. The radioactive lysate was transferred to a scintillation vial containing 5 mL of Ultima Gold liquid scintillation fluid and analyzed using a liquid Scintillation counter. Cells were differentiated for 6 days using the standard adipogenic differentiation protocol described above. Each day on Days 0-3, the cells were washed with PBS and incubated with 200 μL solution of DMEM containing GPs at the indicated concentrations added for 1 hour at 37° C. After this time, the media were removed, the cells were washed with PBS, and fresh differentiation media were added. On Day 6, the adipocytes were subjected to the ^3[H]-2-deoxy-glucose uptake assay and the spent media were analyzed for glucose and lactate content as described above.

[3] = target: T1, lipoprotein lipase (LPL) (Bos taurus, UniProt P11151); assay: Lipoprotein lipase (LPL) binding to adipocytes; format: cell-based, Bovine; conditions: exogenous heparin 100 μg/ml
T1 construct: gift of Gunilla Olivecrona, Umea University
T1 sequence (P11151 29-478): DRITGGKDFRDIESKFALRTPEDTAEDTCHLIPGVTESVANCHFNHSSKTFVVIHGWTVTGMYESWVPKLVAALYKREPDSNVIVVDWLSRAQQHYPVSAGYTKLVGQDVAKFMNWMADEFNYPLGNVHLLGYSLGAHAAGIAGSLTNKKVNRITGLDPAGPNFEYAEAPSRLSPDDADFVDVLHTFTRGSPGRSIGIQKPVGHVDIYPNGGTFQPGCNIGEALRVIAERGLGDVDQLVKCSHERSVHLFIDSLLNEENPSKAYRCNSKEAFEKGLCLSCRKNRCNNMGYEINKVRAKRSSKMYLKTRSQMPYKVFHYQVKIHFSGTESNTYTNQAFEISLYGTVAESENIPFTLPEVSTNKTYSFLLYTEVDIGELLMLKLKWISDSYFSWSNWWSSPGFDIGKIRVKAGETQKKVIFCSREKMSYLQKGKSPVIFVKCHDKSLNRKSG
Method: Bovine LPL generously provided by Gunilla Olivecrona (Department of Biomedical Sciences, Umea University, Umea Sweden)^42. Enzyme activity was determined using ^3H radiolabeled substrate as previously described^43. Molar ratio of biotin to LPL was determined in a HABA displacement assay (Pierce Biotin Quantitation Kit).
LPL binding assays were performed similar to as previously described. Cells were harvested using Accutase cell detachment solution (Millipore) and washed twice with PBS. Cells were incubated for 15 min at 37° C. in serum free media in the absence or presence of 5 mU/ml each of recombinant heparin lyases 1, 11, and 111. Treated and untreated cells were washed twice with PBS, chilled on ice for 20 min and incubated with 50 nM biotinylated LPL in 1% BSA supplemented PBS at 4° C. for 1 hour. Following the incubation, cells were washed twice in ice-cold PBS and incubated with 0.4 μg/mL Phycoerythrin-Cy5 conjugated Streptavidin in 1% BSA supplemented PBS at 4° C. A set of cells was exposed only to Phycoerythrin-Cy5 conjugated Streptavidin and was used as background control. Cells were washed twice with PBS and analyzed by flow cytometry.

[4] = system: WT adipocytes; assay: [9,10-3H(N)]-Palmitate (FFA) uptake in adipocytes; format: cell-based, mouse; conditions: chemical inhibition of HS (heparin 100 μg/ml)
[5] = target: T2, Wnt5a (Homo sapiens, UniProt P41221); assay: Wnt binding to HS-mimetics via ELISA (Wnt5a); conditions: immobilized Wnt5a, biotinylated glycopolymer or heparin
T2 sequence (P41221 62-380): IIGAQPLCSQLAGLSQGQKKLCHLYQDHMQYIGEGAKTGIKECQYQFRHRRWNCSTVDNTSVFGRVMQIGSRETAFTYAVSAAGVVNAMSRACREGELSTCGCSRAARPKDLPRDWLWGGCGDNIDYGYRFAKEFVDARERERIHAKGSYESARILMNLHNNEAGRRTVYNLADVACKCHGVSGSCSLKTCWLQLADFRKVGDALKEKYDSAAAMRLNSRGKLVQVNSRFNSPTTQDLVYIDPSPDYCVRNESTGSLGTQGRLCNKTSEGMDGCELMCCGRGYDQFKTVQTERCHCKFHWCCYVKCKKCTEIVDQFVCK
Method: (§1) Wnt5a and Wnt10b proteins (10 nM solution in 1% (w/v) BSA/DPBS) were immobilized on 96-well tissue culture treated plates overnight at 4° C. The plates were washed twice with 0.05% (v/v) Tween-20 in DPBS and blocked with 1% (w/v) BSA/DPBS for 6 hours at room temperature. Biotinylated HS-mimetic glycopolymers GP or heparin were added to the wells at increasing concentrations in 1% (w/v) BSA/DPBS. After 1 hour incubation, the wells were washed three times with 0.05% Tween-20 in DPBS. Streptavidin-HRP (1:1000 in 1% BSA/DPBS) was added for 45 min at ambient temperature. The wells were again washed three times in 0.05% Tween-20 in DPBS, followed by treatment with 100 μL of TMB substrate for 2-5 min before quenching with 100 μL of 2N sulfuric acid. Absorbance (450 nm) was measured using a Molecular Devices SpectraMax plate reader.

[6] = system: Primary adipocytes derived from murine subcutaneous white adipose tissue (sWAT) stromal vascular cells; assay: Glucose uptake in primary adipocytes from sWAT stromal vascular cells; format: cell-based; conditions: co-incubated with heparin during adipogenesis
Method: Around 1 g subcutaneous WAT from 8- to 14-week-old, male or female mice was dissected, washed, minced, and digested in 1 ml DMEM containing 0.25 U/ml collagenase D (Sigma) at 37° C. with constant agitation at 200 rpm for 25-35 min. To stop the digestion, complete DMEM including 10% FBS and 1% P/S was added to the digestion mixture. Then the cells were filtered through a 100 μm cell strainer. After centrifugation at 200×g for 10 min, the floating adipocyte fraction (AF) was collected for protein isolation, while the pellet containing stromal vascular fraction (SVF) was resuspended in fresh complete medium and seeded on a 10-cm cell culture dish. At a confluency of ˜80%, cells were seeded on 6- and 12-well plates and grown to confluency for differentiation. Differentiation was induced by using complete DMEM/F12 media supplemented with 1 μM dexamethasone, 0.5 mM isobutylmethylxanthine (IBMX), 5 μg/ml insulin, and 1 μM rosiglitazone. Three days after induction, medium was changed to complete DMEM/F12 supplemented with 5 μg/ml insulin for two days, afterwards cells were maintained in complete DMEM/F12 medium. […]
Cells are washed twice with PBS and placed into DMEM with 2 mg/mL BSA for two hours. […] The radioactive lysate was transferred to a scintillation vial containing 5 mL of Ultima Gold liquid scintillation fluid and analyzed using a liquid Scintillation counter.

[7] = system: WT adipocytes; assay: Glucose and lactate in spent media (YSI), adipocytes differentiated with heparin; format: cell-based, mouse; conditions: heparin 100 μg/ml during differentiation; spent media day 6
Method: Cells were seeded on a 24-well plate at a density of 30,000 cells/cm^2. Cells were allowed to grow to confluence for 48 hours. At this point (Day 0), the media were removed, cells were washed with PBS, and differentiation media with or without heparin (100 μg/ml) were added. Differentiation media consisted of 0.1 μM dexamethasone, 450 μM 3-isobutyl-1-methylxanthine, 2 μM insulin, and 1 μM rosiglitazone in DMEM supplemented with 10% FBS. On Day 3 of differentiation, cells were washed with PBS and treated with insulin media, which consisted of 2 μM insulin, and 1 μM rosiglitazone in DMEM with 10% FBS. The cellular cholesterol and triglyceride content was determined after lysing cells in 0.1M NaOH. Total plasma cholesterol and plasma triglyceride levels (Sekisui Diagnostics) and protein levels (BCA protein assay) were determined using commercially available kits.
MEFs are differentiated to day 6 into adipocytes in a 24 well plate, and on day six (6) 500 μL of media is collected from each well in an Eppendorf tube and immediately frozen in liquid nitrogen. […] Then, the filtrate is analyzed using a YSl 2900, where the sample is loaded into two wells of a 96 well plate, 200 μL media per well. The samples are then analyzed for lactate and glucose concentration.

[8] = target: Wnt10b (Homo sapiens, UniProt O00744); assay: Wnt binding to HS-mimetics via ELISA (Wnt10b); conditions: immobilized Wnt10b, biotinylated glycopolymer or heparin
Chain of Wnt10b (O00744 29-389, species assumed): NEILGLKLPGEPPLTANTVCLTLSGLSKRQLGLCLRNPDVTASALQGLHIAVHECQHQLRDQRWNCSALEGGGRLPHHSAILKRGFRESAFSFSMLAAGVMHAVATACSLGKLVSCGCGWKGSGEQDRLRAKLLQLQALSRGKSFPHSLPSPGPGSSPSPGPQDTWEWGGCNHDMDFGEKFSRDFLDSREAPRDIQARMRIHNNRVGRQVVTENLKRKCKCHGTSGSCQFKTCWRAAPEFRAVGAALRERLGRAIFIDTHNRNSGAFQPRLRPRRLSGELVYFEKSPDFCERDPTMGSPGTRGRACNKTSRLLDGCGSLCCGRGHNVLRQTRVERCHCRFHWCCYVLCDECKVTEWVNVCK
Method: as §1

| Molecule | glucose clearance in differentiated adipocytes [1] | glucose clearance in differentiated adipocytes [2] | toxicity to WT adipocytes ([1]; 10 nM) | reduction of glucose uptake ([1]; WT cells treated with exogenous heparin (100 μg/ml) during differentiation, basal) [%] | differential in glucose uptake versus WT after insulin stimulation ([1]; WT cells with heparin, insulin stimulated) [%] | glucose uptake at day 6 ([1]; heparin 100 μg/ml from start, cells treated up to day 3 and beyond) | glucose uptake, acute treatment of mature adipocytes ([1]; heparin 100 μg/ml simultaneously with 3[H]-2-deoxy-glucose administration, WT and Ndst1−/−) | glucose uptake at day 6 ([1]; heparin added after day 4 of differentiation) | glucose uptake potential relative to untreated WT adipocytes ([1]; soluble heparin 100 μg/ml) | binding of lipoprotein lipase (LPL) [3] | FFA uptake [4] | EC50 [5] [nM] | glucose uptake [6] | 3[H]-2-deoxy-glucose uptake ([2]; Ndst1−/− MEFs treated 1 hour at 37° C. on day 0 to 3, differentiated adipocytes day 6) | effect of exogenous heparin on glucose uptake ([2]; Ndst1−/− cells treated with exogenous heparin) | glucose levels in the culture medium [7] | lactate production [7] | EC50 [8] [nM] |
| --- | --- | --- | --- | --- | --- | --- | --- | --- | --- | --- | --- | --- | --- | --- | --- | --- | --- | --- |
| Oc1nc(-c2ccc(C(F)(F)F)cc2)nc2c1CSCC2 [XAV-939] | enhanced glucose clearance | enhanced glucose clearance | – | – | – | – | – | – | – | – | – | – | – | – | – | – | – | – |
| Cc1cc(-c2ccc(CC(=O)Nc3ccc(-c4cccnc4)cc3)cc2)ccn1 [Wnt-C59] | no effect on cellular glucose clearance | enhanced glucose clearance capacity | toxic | – | – | – | – | – | – | – | – | – | – | – | – | – | – | – |
| heparin | – | – | – | 45 | −44 | significantly reduced glucose uptake | unaltered glucose uptake | can no longer impact glucose uptake | reduces glucose uptake potential | reduced binding | did not negatively affect FFA uptake | 28.2 | reduced glucose uptake | had no effect; also recorded: no effect on cellular glucose uptake | did not have an additive effect on glucose uptake | high glucose levels remaining | decreased lactate production | 30.1 |
